Experimental data as given in ChEMBL document CHEMBL1138883, “Synthesis and biological evaluation of new asymmetrical bisintercalators as potential antitumor drugs” (2006).
Active and inactive are the calls of the source. The rule behind the calls is not given here.

Tests used:
PC-3 [1] = assay: Induction of apoptosis in PC3 measured as percentage of early apoptotic cells by biparametric PI/Annexin V assay at 3.6 uM after 24 hrs; type: functional, Homo sapiens
PC-3 [2] = assay: Induction of necrosis in PC3 cells by DNA fragmentation assay; type: functional, cell-based; details: Homo sapiens
PC-3 [3] = assay: Induction of apoptosis in PC3 measured as percentage of late apoptotic cells by biparametric PI/Annexin V assay at 3.6 uM after 8 hrs; type: functional, Homo sapiens
PC-3 [4] = assay: Induction of apoptosis in PC3 measured as percentage of early apoptotic cells by biparametric PI/Annexin V assay at 3.6 uM after 48 hrs; type: functional, Homo sapiens
[5] = Ratio of K(app) for [A-T] to [G-C]
PC-3 [6] = assay: Induction of apoptosis in PC3 measured as percentage of necrotic cells by biparametric PI/Annexin V assay at 3.6 uM after 8 hrs; type: functional, Homo sapiens
PC-3 [7] = assay: Induction of apoptosis in PC3 cells measured as percentage of living cells by biparametric PI/Annexin V assay at 3.6 uM after 8 hrs; type: functional, Homo sapiens
PC-3 [8] = assay: Induction of apoptosis in PC3 measured as percentage of necrotic cells by biparametric PI/Annexin V assay at 3.6 uM after 4 hrs; type: functional, Homo sapiens
PC-3 [9] = assay: Induction of apoptosis in PC3 cells measured as percentage of living cells by biparametric PI/Annexin V assay at 3.6 uM after 4 hrs; type: functional, Homo sapiens
PC-3 [10] = assay: Induction of apoptosis in PC3 measured as percentage of early apoptotic cells by biparametric PI/Annexin V assay at 3.6 uM after 4 hrs; type: functional, Homo sapiens
PC-3 [11] = assay: Induction of apoptosis in PC3 measured as percentage of late apoptotic cells by biparametric PI/Annexin V assay at 3.6 uM after 24 hrs; type: functional, Homo sapiens
PC-3 [12] = assay: Induction of apoptosis in PC3 measured as percentage of necrotic cells by biparametric PI/Annexin V assay at 3.6 uM after 48 hrs; type: functional, Homo sapiens
PC-3 [13] = assay: Induction of apoptosis in PC3 cells measured as percentage of living cells by biparametric PI/Annexin V assay at 3.6 uM after 24 hrs; type: functional, Homo sapiens
PC-3 [14] = assay: Induction of apoptosis in PC3 cells measured as percentage of living cells by biparametric PI/Annexin V assay at 3.6 uM after 48 hrs; type: functional, Homo sapiens
PC-3 [15] = assay: Reduction in PC3 cell viability after 48 hrs by FDA flow cytometer assay; type: functional, cell-based; details: Homo sapiens
PC-3 [16] = assay: Induction of apoptosis in PC3 measured as percentage of late apoptotic cells by biparametric PI/Annexin V assay at 3.6 uM after 4 hrs; type: functional, Homo sapiens
PC-3 [17] = assay: Induction of apoptosis in PC3 measured as percentage of necrotic cells by biparametric PI/Annexin V assay at 3.6 uM after 24 hrs; type: functional, Homo sapiens
PC-3 [18] = assay: Cytotoxicity against PC3 cells by SRB assay after 48 hrs; type: functional; details: Homo sapiens, PC-3, 48 h
PC-3 [19] = assay: Induction of apoptosis in PC3 measured as percentage of late apoptotic cells by biparametric PI/Annexin V assay at 3.6 uM after 48 hrs; type: functional, Homo sapiens
PC-3 [20] = assay: Induction of apoptosis in PC3 cells by DNA fragmentation assay; type: functional, cell-based; details: Homo sapiens
PC-3 [21] = assay: Induction of apoptosis in PC3 measured as percentage of early apoptotic cells by biparametric PI/Annexin V assay at 3.6 uM after 8 hrs; type: functional, Homo sapiens
PC-3 [22] = assay: Induction of apoptosis in PC3 measured as percentage of late apoptotic cells by biparametric PI/Annexin V assay at 5.1 uM after 24 hrs; type: functional, Homo sapiens
PC-3 [23] = assay: Induction of apoptosis in PC3 measured as percentage of necrotic cells by biparametric PI/Annexin V assay at 5.1 uM after 8 hrs; type: functional, Homo sapiens
PC-3 [24] = assay: Induction of apoptosis in PC3 measured as percentage of late apoptotic cells by biparametric PI/Annexin V assay at 5.1 uM after 4 hrs; type: functional, Homo sapiens
PC-3 [25] = assay: Induction of apoptosis in PC3 cells measured as percentage of living cells by biparametric PI/Annexin V assay at 5.1 uM after 24 hrs; type: functional, Homo sapiens
PC-3 [26] = assay: Induction of apoptosis in PC3 measured as percentage of early apoptotic cells by biparametric PI/Annexin V assay at 5.1 uM after 4 hrs; type: functional, Homo sapiens
PC-3 [27] = assay: Induction of apoptosis in PC3 measured as percentage of necrotic cells by biparametric PI/Annexin V assay at 5.1 uM after 48 hrs; type: functional, Homo sapiens
PC-3 [28] = assay: Induction of apoptosis in PC3 measured as percentage of early apoptotic cells by biparametric PI/Annexin V assay at 5.1 uM after 24 hrs; type: functional, Homo sapiens
PC-3 [29] = assay: Induction of apoptosis in PC3 cells measured as percentage of living cells by biparametric PI/Annexin V assay at 5.1 uM after 48 hrs; type: functional, Homo sapiens
PC-3 [30] = assay: Induction of apoptosis in PC3 cells measured as percentage of living cells by biparametric PI/Annexin V assay at 5.1 uM after 8 hrs; type: functional, Homo sapiens
PC-3 [31] = assay: Induction of apoptosis in PC3 measured as percentage of necrotic cells by biparametric PI/Annexin V assay at 5.1 uM after 24 hrs; type: functional, Homo sapiens
PC-3 [32] = assay: Induction of apoptosis in PC3 cells measured as percentage of living cells by biparametric PI/Annexin V assay at 5.1 uM after 4 hrs; type: functional, Homo sapiens
PC-3 [33] = assay: Induction of apoptosis in PC3 measured as percentage of necrotic cells by biparametric PI/Annexin V assay at 5.1 uM after 4 hrs; type: functional, Homo sapiens
PC-3 [34] = assay: Induction of apoptosis in PC3 measured as percentage of early apoptotic cells by biparametric PI/Annexin V assay at 5.1 uM after 8 hrs; type: functional, Homo sapiens
PC-3 [35] = assay: Induction of apoptosis in PC3 measured as percentage of late apoptotic cells by biparametric PI/Annexin V assay at 5.1 uM after 8 hrs; type: functional, Homo sapiens
PC-3 [36] = assay: Induction of apoptosis in PC3 measured as percentage of early apoptotic cells by biparametric PI/Annexin V assay at 5.1 uM after 48 hrs; type: functional, Homo sapiens
PC-3 [37] = assay: Induction of apoptosis in PC3 measured as percentage of late apoptotic cells by biparametric PI/Annexin V assay at 5.1 uM after 48 hrs; type: functional, Homo sapiens

SMILES: COc1ccc2nc3c(C(=O)NCCN(C)C)ccc(NCCCN(C)CCCN4C(=O)c5cccc6cccc(c56)C4=O)c3c(O)c2c1.Cl
- Activity (PC-3 [1]): 25.9%
- Activity (PC-3 [2]): Active
- Activity (PC-3 [3]): 2.9%
- Activity (PC-3 [4]): 59%
- Selectivity ratio [5]: 30
- Activity (PC-3 [6]): 32.9%
- Activity (PC-3 [7]): 62.7%
- Activity (PC-3 [8]): 16.4%
- Activity (PC-3 [9]): 81.1%
- Activity (PC-3 [10]): 1.3%
- Activity (PC-3 [11]): 16.3%
- Activity (PC-3 [12]): 24.4%
- Activity (PC-3 [13]): 35.5%
- Activity (PC-3 [14]): 2.3%
- Activity (PC-3 [15]): Time-dependent effect
- Activity (PC-3 [16]): 1.2%
- Activity (PC-3 [17]): 22.3%
- GI50 (PC-3 [18]): 0.16 nM
- LC50 (concentration for 50% net cell kill) (PC-3 [18]): 3600 nM
- TGI (PC-3 [18]): 14 nM
- Activity (PC-3 [19]): 14.3%
- Activity (PC-3 [20]): Active
- Activity (PC-3 [21]): 1.5%

SMILES: Cc1ccc2c(c1)c(=O)c1c(NCCCN(C)CCCN3C(=O)c4cccc5cccc(c45)C3=O)ccc3nnn2c31.Cl
- Activity (PC-3 [22]): 16.1%
- Activity (PC-3 [23]): 42%
- Activity (PC-3 [24]): 1.1%
- Activity (PC-3 [25]): 11.9%
- Activity (PC-3 [26]): 0.9%
- Activity (PC-3 [27]): 27.3%
- Selectivity ratio [5]: 1.7
- Activity (PC-3 [28]): 39%
- Activity (PC-3 [29]): 1%
- Activity (PC-3 [30]): 54.8%
- Activity (PC-3 [31]): 33%
- Activity (PC-3 [32]): 69.4%
- Activity (PC-3 [33]): 28.6%
- Activity (PC-3 [15]): Time-dependent effect
- GI50 (PC-3 [18]): 17 nM
- LC50 (concentration for 50% net cell kill) (PC-3 [18]): 5100 nM
- TGI (PC-3 [18]): 1600 nM
- Activity (PC-3 [34]): 1.3%
- Activity (PC-3 [35]): 1.9%
- Activity (PC-3 [36]): 57%
- Activity (PC-3 [37]): 15.7%
- Activity (PC-3 [20]): Active
